What was measured:
Hepatitis C virus = experiment: Antiviral activity against HCV 1b infected in Huh7 cells assessed as inhibition viral subgenomic replication by luciferase based replicon assay; assay type: functional, organism-based, Hepacivirus hominis; conditions: genotype 1b, Huh-7
[1] = (§1) Cmax in Wistar rat at 4 mg/kg, po; assay type: ADME, organism-based; design: dose 4 mg/kg, route oral; conditions: Wistar, in vivo
[2] = Drug level in Wistar rat liver at 4 mg/kg, po after 4 hrs; assay type: ADME, organism-based; design: dose 4 mg/kg, route oral; conditions: read-out: AUC
[3] = Inhibition of HCV NS3/4A protease; design: species or system Hepacivirus hominis
Rattus norvegicus [4] = experiment: AUC (0 to infinity) in Wistar rat plasma at 4 mg/kg, po; assay type: ADME, organism-based; design: time infinity, dose 4 mg/kg, route oral; conditions: in vivo
Rattus norvegicus [5] = experiment: as §1; assay type: ADME, organism-based; design: dose 4 mg/kg, route oral; conditions: in vivo, BLD = below limit of detection

SMILES	EC50 (Hepatitis C virus)	Cmax [1]	concentration at 4 h [2]	Ki [3]	AUC (Rattus norvegicus [4])	Cmax (Rattus norvegicus [5])
C=C[C@@H]1C[C@]1(NC(=O)[C@@H]1C[C@@H]2CN1C(=O)[C@H](C(C)C)CC(=O)N(C(C)C)CCCCCc1cccc3c1CN(C3)C(=O)O2)C(=O)NS(=O)(=O)C1CC1	35 nM	80 nM	2200 nM	0.72 nM	0.22 µM·h	–
C=C[C@@H]1C[C@]1(NC(=O)[C@@H]1C[C@@H]2CN1C(=O)[C@H](C1CCCCC1)CC(=O)NCCCCCc1cccc3c1CN(C3)C(=O)O2)C(=O)NS(=O)(=O)C1CC1	12 nM	50 nM	2200 nM	0.76 nM	0.12 µM·h	–
C=C[C@@H]1C[C@]1(NC(=O)[C@@H]1C[C@@H]2CN1C(=O)[C@H](C(C)C)NC(=O)OCCC/C=C\c1cccc3c1CN(C3)C(=O)O2)C(=O)NS(=O)(=O)C1CC1	12 nM	–	–	0.06 nM	–	–
C=C[C@@H]1C[C@]1(NC(=O)[C@@H]1C[C@@H]2CN1C(=O)[C@H](C(C)C)CC(=O)NCCCCCc1cccc3c1CN(C3)C(=O)O2)C(=O)NS(=O)(=O)C1CC1	100 nM	–	–	1.4 nM	–	–

Second part, the molecule after the results:

EC50 (Hepatitis C virus)	Cmax [1]	concentration at 4 h [2]	Ki [3]	AUC (Rattus norvegicus [4])	Cmax (Rattus norvegicus [5])	SMILES
7 nM	–	100 nM	0.56 nM	–	BLD	C=C[C@@H]1C[C@]1(NC(=O)[C@@H]1C[C@@H]2CN1C(=O)[C@H](C1CCCCC1)CC(=O)NCCCCCc1cc(OC)cc3nc(-c4ccccc4)cc(c13)O2)C(=O)NS(=O)(=O)C1CC1
11 nM	90 nM	3000 nM	0.61 nM	0.09 µM·h	–	C=C[C@@H]1C[C@]1(NC(=O)[C@@H]1C[C@@H]2CN1C(=O)[C@H](C1CCCCC1)CC(=O)N(C(C)C)CCCCCc1cccc3c1CN(C3)C(=O)O2)C(=O)NS(=O)(=O)C1CC1
37 nM	380 nM	9300 nM	0.6 nM	1.1 µM·h	–	C=C[C@@H]1C[C@]1(NC(=O)[C@@H]1C[C@@H]2CN1C(=O)[C@H](C1CCCCC1)CC(=O)N(C(C)C)CCCCCc1cc(OC)cc3nc(-c4ccccc4)cc(c13)O2)C(=O)NS(=O)(=O)C1CC1

— ChEMBL document CHEMBL1153151, “Novel P2-P4 macrocyclic inhibitors of HCV NS3/4A protease by P3 succinamide fragment depeptidization strategy” (Bioorg Med Chem Lett, 2010)
